# Laboratory results reported in PubChem BioAssay (NCI).
#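 All cell lines were grown in 96-well plates and treated with compound for 48 hours. Abbreviation: GI50, concentration required for 50% inhibition of growth. TGI marks complete inhibition of growth.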
# Legend:
# Experiment in all cases: NCI-60 cell line screen, 48 h
# HS 578T breast = tested on: HS 578T breast
# SK-MEL-2 melanoma = tested on: SK-MEL-2 melanoma
# SF-539 CNS = tested on: SF-539 CNS
# PC-3 prostate = tested on: PC-3 prostate
# A498 renal = tested on: A498 renal
# A549 NSCLC = tested on: A549 NSCLC
# COLO 205 colon = tested on: COLO 205 colon
# SNB-19 CNS = tested on: SNB-19 CNS
# NCI-H460 lung = tested on: NCI-H460 lung
# SK-OV-3 ovarian = tested on: SK-OV-3 ovarian
# DU-145 prostate = tested on: DU-145 prostate
# KM12 colon = tested on: KM12 colon
# HOP-62 NSCLC = tested on: HOP-62 NSCLC
# HOP-92 NSCLC = tested on: HOP-92 NSCLC
# SN12C renal = tested on: SN12C renal
# MCF7 breast = tested on: MCF7 breast
# NCI-H226 lung = tested on: NCI-H226 lung
# HT29 colon = tested on: HT29 colon
# SF-295 CNS = tested on: SF-295 CNS
# MOLT-4 leukemia = tested on: MOLT-4 leukemia
# 786-0 renal = tested on: 786-0 renal
# K-562 leukemia = tested on: K-562 leukemia
# SF-268 CNS = tested on: SF-268 CNS
# OVCAR-5 ovarian = tested on: OVCAR-5 ovarian
# SNB-75 CNS = tested on: SNB-75 CNS
# UO-31 renal = tested on: UO-31 renal
# IGROV1 ovarian = tested on: IGROV1 ovarian
# OVCAR-3 ovarian = tested on: OVCAR-3 ovarian
# OVCAR-4 ovarian = tested on: OVCAR-4 ovarian
# UACC-257 melanoma = tested on: UACC-257 melanoma
# HCT-15 colon = tested on: HCT-15 colon
# NCI-H23 lung = tested on: NCI-H23 lung
# MDA-MB-231 breast = tested on: MDA-MB-231 breast
# NCI-H522 lung = tested on: NCI-H522 lung
# RPMI-8226 leukemia = tested on: RPMI-8226 leukemia
# HCC-2998 colon = tested on: HCC-2998 colon
# T-47D breast = tested on: T-47D breast
# MDA-MB-435 = tested on: MDA-MB-435
# SK-MEL-28 melanoma = tested on: SK-MEL-28 melanoma
# ACHN renal = tested on: ACHN renal
# TK-10 renal = tested on: TK-10 renal
# U251 CNS = tested on: U251 CNS
# BT-549 breast = tested on: BT-549 breast
# SW-620 colon = tested on: SW-620 colon
# HL-60(TB) leukemia = tested on: HL-60(TB) leukemia
# LOX IMVI melanoma = tested on: LOX IMVI melanoma
# SK-MEL-5 melanoma = tested on: SK-MEL-5 melanoma
# EKVX NSCLC = tested on: EKVX NSCLC
# NCI/ADR-RES ovarian = tested on: NCI/ADR-RES ovarian
# HCT-116 colon = tested on: HCT-116 colon
# OVCAR-8 ovarian = tested on: OVCAR-8 ovarian
# RXF 393 renal = tested on: RXF 393 renal
# M14 melanoma = tested on: M14 melanoma
# CAKI-1 renal = tested on: CAKI-1 renal
# CCRF-CEM leukemia = tested on: CCRF-CEM leukemia
# UACC-62 melanoma = tested on: UACC-62 melanoma
# SR leukemia = tested on: SR leukemia
smiles,measurement,setting,value
O=S(=O)(Nc1ccc(Cl)cc1Cl)c1ccc(-c2cnc(C3CC3)o2)cc1,GI50,HS 578T breast,365 nM
same,TGI,HS 578T breast,48500 nM
same,GI50,SK-MEL-2 melanoma,3030 nM
same,TGI,SK-MEL-2 melanoma,42200 nM
same,GI50,SF-539 CNS,414 nM
same,TGI,SF-539 CNS,7550 nM
same,GI50,PC-3 prostate,612 nM
same,TGI,PC-3 prostate,> 53200 nM
same,GI50,A498 renal,197 nM
same,TGI,A498 renal,875 nM
same,GI50,A549 NSCLC,1020 nM
same,TGI,A549 NSCLC,> 100000 nM
same,GI50,COLO 205 colon,1130 nM
same,TGI,COLO 205 colon,11100 nM
same,GI50,SNB-19 CNS,538 nM
same,TGI,SNB-19 CNS,> 100000 nM
same,GI50,NCI-H460 lung,466 nM
same,TGI,NCI-H460 lung,> 40400 nM
same,GI50,SK-OV-3 ovarian,7100 nM
same,TGI,SK-OV-3 ovarian,99400 nM
same,GI50,DU-145 prostate,2600 nM
same,TGI,DU-145 prostate,> 100000 nM
same,GI50,KM12 colon,485 nM
same,TGI,KM12 colon,25900 nM
same,GI50,HOP-62 NSCLC,909 nM
same,TGI,HOP-62 NSCLC,55400 nM
same,GI50,HOP-92 NSCLC,491 nM
same,TGI,HOP-92 NSCLC,15300 nM
same,GI50,SN12C renal,1400 nM
same,TGI,SN12C renal,46200 nM
same,GI50,MCF7 breast,350 nM
same,TGI,MCF7 breast,41200 nM
same,GI50,NCI-H226 lung,1370 nM
same,TGI,NCI-H226 lung,31100 nM
same,GI50,HT29 colon,410 nM
same,TGI,HT29 colon,30600 nM
same,GI50,SF-295 CNS,335 nM
same,TGI,SF-295 CNS,3400 nM
same,GI50,MOLT-4 leukemia,692 nM
same,TGI,MOLT-4 leukemia,> 100000 nM
same,GI50,786-0 renal,615 nM
same,TGI,786-0 renal,> 86500 nM
same,GI50,K-562 leukemia,382 nM
same,TGI,K-562 leukemia,> 100000 nM
same,GI50,SF-268 CNS,2850 nM
same,TGI,SF-268 CNS,72900 nM
same,GI50,OVCAR-5 ovarian,2660 nM
same,TGI,OVCAR-5 ovarian,> 100000 nM
same,GI50,SNB-75 CNS,185 nM
same,TGI,SNB-75 CNS,750 nM
same,GI50,UO-31 renal,1060 nM
same,TGI,UO-31 renal,37100 nM
same,GI50,IGROV1 ovarian,647 nM
same,TGI,IGROV1 ovarian,> 73300 nM
same,GI50,OVCAR-3 ovarian,439 nM
same,TGI,OVCAR-3 ovarian,15000 nM
same,GI50,OVCAR-4 ovarian,3720 nM
same,TGI,OVCAR-4 ovarian,> 100000 nM
same,GI50,UACC-257 melanoma,10500 nM
same,TGI,UACC-257 melanoma,60500 nM
same,GI50,HCT-15 colon,445 nM
same,TGI,HCT-15 colon,40400 nM
same,GI50,NCI-H23 lung,1400 nM
same,TGI,NCI-H23 lung,55500 nM
same,GI50,MDA-MB-231 breast,2080 nM
same,TGI,MDA-MB-231 breast,28400 nM
same,GI50,NCI-H522 lung,435 nM
same,TGI,NCI-H522 lung,17300 nM
same,GI50,RPMI-8226 leukemia,903 nM
same,TGI,RPMI-8226 leukemia,44800 nM
same,GI50,HCC-2998 colon,1600 nM
same,TGI,HCC-2998 colon,16500 nM
same,GI50,T-47D breast,475 nM
same,TGI,T-47D breast,> 85800 nM
same,GI50,MDA-MB-435,182 nM
same,TGI,MDA-MB-435,727 nM
same,GI50,SK-MEL-28 melanoma,3280 nM
same,TGI,SK-MEL-28 melanoma,> 78800 nM
same,GI50,ACHN renal,639 nM
same,TGI,ACHN renal,21500 nM
same,GI50,TK-10 renal,5030 nM
same,TGI,TK-10 renal,79600 nM
same,GI50,U251 CNS,613 nM
same,TGI,U251 CNS,33800 nM
same,GI50,BT-549 breast,663 nM
same,TGI,BT-549 breast,36300 nM
same,GI50,SW-620 colon,423 nM
same,TGI,SW-620 colon,> 100000 nM
same,GI50,HL-60(TB) leukemia,351 nM
same,TGI,HL-60(TB) leukemia,9410 nM
same,GI50,LOX IMVI melanoma,542 nM
same,TGI,LOX IMVI melanoma,34000 nM
same,GI50,SK-MEL-5 melanoma,555 nM
same,TGI,SK-MEL-5 melanoma,14100 nM
same,GI50,EKVX NSCLC,2560 nM
same,TGI,EKVX NSCLC,88600 nM
same,GI50,NCI/ADR-RES ovarian,510 nM
same,TGI,NCI/ADR-RES ovarian,17500 nM
same,GI50,HCT-116 colon,431 nM
same,TGI,HCT-116 colon,> 65400 nM
same,GI50,OVCAR-8 ovarian,1790 nM
same,TGI,OVCAR-8 ovarian,> 82100 nM
same,GI50,RXF 393 renal,359 nM
same,TGI,RXF 393 renal,7410 nM
same,GI50,M14 melanoma,473 nM
same,TGI,M14 melanoma,> 88200 nM
same,GI50,CAKI-1 renal,505 nM
same,TGI,CAKI-1 renal,55900 nM
same,GI50,CCRF-CEM leukemia,509 nM
same,TGI,CCRF-CEM leukemia,> 100000 nM
same,GI50,UACC-62 melanoma,391 nM
same,TGI,UACC-62 melanoma,26700 nM
same,GI50,SR leukemia,420 nM
same,TGI,SR leukemia,> 58900 nM
